{"source": "patent US20080280879A1", "about": "“SUBSTITUTED HETEROCYCLIC DERIVATIVES AND THEIR PHARMACEUTICAL USE AND COMPOSITIONS” (priority 2007, published 2008)", "assay_type_in_all_cases": "cell-based, Staphylococcus aureus", "key": {"Staph aureus 2810": {"test_system": "Staph aureus 2810", "test": "MIC, microtiter broth dilution (CLSI M7-A7), Assay 2, Table 12 column H, no serum", "conditions": "for MIC: Staphylococcus aureus, 2810, Staph aureus 2810, Assay 2, no serum", "experimental": "(§1) The assays described herein include a panel of bacterial isolates of Staphylococcus aureus. Assay 1 comprises the strains noted in Columns A through E, and Assay 2 comprises the strains noted in Columns F through H. The assays are performed in microtiter trays according to Methods for Dilution Antimicrobial Susceptibility Tests for Bacteria that Grow Aerobically; Approved Standard-7th edition (M7-A7) and interpreted according to the Performance Standards for Antimicrobial Susceptibility Testing; 16th Informational Supplement (M100-S16) published by Clinical Laboratory Standards Institute (CLSI). The antibacterial activity is presented in the form of a minimum inhibitory concentration (MIC) value in μg/ml format. The MIC value represents the lowest concentration of drug measured which prevented macroscopically visible growth under the conditions and specific doses tested. The compounds were initially dissolved in DMSO as 30 mM stocks and diluted accordingly to adjust to a concentration of 10 mg/ml or the compounds were dissolved in DMSO at a concentration of 10 mg/ml. For assessment of activity in the presence of human serum, S. aureus 1146 and S. aureus 1031 were inoculated into Mueller-Hinton Broth with 50% pooled inactivated human serum. In some cases, compounds were tested more than once in a particular assay. Where noted, the MIC value shown in Table 12 represents the geometric mean of the data from multiple runs.\n(§2) It should be understood that the data in columns A-H represents MIC data in μg/ml and the notation “<=” means ‘less than or equal to’."}, "Staph aureus 1031 [1]": {"test_system": "Staph aureus 1031", "test": "MIC in Mueller-Hinton Broth with 50% pooled inactivated human serum, Assay 2, Table 12 column G", "conditions": "Staphylococcus aureus, 1031, Staph aureus 1031, Assay 2, 50% human serum", "experimental": "as §1, §2"}, "Staph aureus 1031 [2]": {"test_system": "Staph aureus 1031", "test": "MIC, microtiter broth dilution (CLSI M7-A7), Assay 2, Table 12 column F, no serum", "conditions": "for MIC: Staphylococcus aureus, 1031, Staph aureus 1031, Assay 2, no serum", "experimental": "as §1, §2"}, "Staph aureus 1095 MRSA": {"test_system": "Staph aureus 1095 MRSA", "test": "MIC, microtiter broth dilution (CLSI M7-A7), Assay 1, Table 12 column A, no serum", "conditions": "Assay 1, no serum; for MIC: Staphylococcus aureus, MRSA", "outline": "(§3)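 Broth microdilution in microtiter trays per CLSI M7-A7, interpreted per M100-S16; MIC (μg/ml) is the lowest concentration preventing macroscopically visible growth. Compounds were dissolved in DMSO at 10 mg/ml. Serum-containing runs used Mueller-Hinton Broth with 50% pooled inactivated human serum; repeated runs are reported as geometric means.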"}, "Staph aureus 2812": {"test_system": "Staph aureus 2812", "test": "MIC, microtiter broth dilution (CLSI M7-A7), Assay 1, Table 12 column E, no serum", "conditions": "for MIC, column E: Staph aureus 2812, Assay 1, no serum; for MIC: Staphylococcus aureus, 2812, Staph aureus 2812, Assay 1, no serum", "outline": "as §3"}, "Staph aureus 2811": {"test_system": "Staph aureus 2811", "test": "MIC, microtiter broth dilution (CLSI M7-A7), Assay 1, Table 12 column D, no serum", "conditions": "for MIC, column D: Staph aureus 2811, Assay 1, no serum; for MIC: Staphylococcus aureus, 2811, Staph aureus 2811, Assay 1, no serum", "outline": "as §3"}, "Staph aureus 1146 [3]": {"test_system": "Staph aureus 1146", "test": "MIC, microtiter broth dilution (CLSI M7-A7), Assay 1, Table 12 column B, no serum", "conditions": "for MIC, column B: Staph aureus 1146, Assay 1, no serum; for MIC: Staphylococcus aureus, 1146, Staph aureus 1146, Assay 1, no serum", "outline": "as §3"}, "Staph aureus 1146 [4]": {"test_system": "Staph aureus 1146", "test": "MIC in Mueller-Hinton Broth with 50% pooled inactivated human serum, Assay 1, Table 12", "conditions": "for MIC, column C: Staph aureus 1146, Assay 1, 50% human serum; for MIC: Staphylococcus aureus, 1146, Staph aureus 1146, Assay 1, 50% human serum, read-out: MIC, column C", "outline": "as §3"}}}
{"smiles": "COc1ccc2nccc(C(O)CC[C@@H]3CCN(CC4CCc5nc(-c6cnccn6)ncc5C4)C[C@@H]3C(=O)O)c2c1", "note": "(stereo partly drawn) [Example 119, (3R,4R)-4-[3-hydroxy-3-(6-methoxyquinolin-4-yl)propyl]-1-[(2-pyrazin-2-yl-5,6,7,8-tetrahydroquinazolin-6-yl)methyl]piperidine-3-carboxylic acid]", "values": [{"measurement": "MIC", "setting": "Staph aureus 2810", "value": "> 64", "unit": "µg/mL"}, {"measurement": "MIC", "setting": "Staph aureus 1031 [1]", "value": "> 64", "unit": "µg/mL"}, {"measurement": "MIC", "setting": "Staph aureus 1031 [2]", "value": "> 64", "unit": "µg/mL"}]}
{"smiles": "COc1ccc2nccc(C(O)CC[C@@H]3CCN(CC4CCc5nc(-c6ccccc6)ncc5C4)C[C@@H]3C(=O)O)c2c1", "note": "(stereo partly drawn) [Example 118, (3R,4R)-4-[3-hydroxy-3-(6-methoxyquinolin-4-yl)propyl]-1-[(2-phenyl-5,6,7,8-tetrahydroquinazolin-6-yl)methyl]piperidine-3-carboxylic acid]", "values": [{"measurement": "MIC", "setting": "Staph aureus 2810", "value": "> 64", "unit": "µg/mL"}, {"measurement": "MIC", "setting": "Staph aureus 1031 [1]", "value": "> 64", "unit": "µg/mL"}, {"measurement": "MIC", "setting": "Staph aureus 1031 [2]", "value": "> 64", "unit": "µg/mL"}]}
{"smiles": "COC(=O)[C@H]1CN(C2Cc3ccccc3C2)CC[C@H]1CCC(O)c1ccnc2ccc(OC)cc12", "note": "(stereo partly drawn) [Example 78, (3R,4R)-methyl 1-(2,3-dihydro-1H-inden-2-yl)-4-(3-hydroxy-3-(6-methoxyquinolin-4-yl)propyl)piperidine-3-carboxylate]", "values": [{"measurement": "MIC", "setting": "Staph aureus 2810", "value": "> 64", "unit": "µg/mL"}, {"measurement": "MIC", "setting": "Staph aureus 1031 [1]", "value": "> 64", "unit": "µg/mL"}, {"measurement": "MIC", "setting": "Staph aureus 1031 [2]", "value": "> 64", "unit": "µg/mL"}]}
{"smiles": "COC(=O)[C@H]1CN(C2CN(c3ccccn3)C2)CC[C@H]1CCC(O)c1ccnc2ccc(OC)cc12", "note": "(stereo partly drawn) [Example 124, methyl (3R,4R)-4-[3-hydroxy-3-(6-methoxyquinolin-4-yl)propyl]-1-(1-pyridin-2-ylazetidin-3-yl)piperidine-3-carboxylate]", "values": [{"measurement": "MIC", "setting": "Staph aureus 2810", "value": "> 64", "unit": "µg/mL"}, {"measurement": "MIC", "setting": "Staph aureus 1031 [1]", "value": "> 64", "unit": "µg/mL"}, {"measurement": "MIC", "setting": "Staph aureus 1031 [2]", "value": "> 64", "unit": "µg/mL"}]}
{"smiles": "COC(=O)[C@H]1CN(C2CCCc3ccccc32)CC[C@H]1CCC(O)c1ccnc2ccc(OC)cc12", "note": "(stereo partly drawn) [Example 76, (3R,4R)-methyl 4-(3-hydroxy-3-(6-methoxyquinolin-4-yl)propyl)-1-(1,2,3,4-tetrahydronaphthalen-1-yl)piperidine-3-carboxylate]", "values": [{"measurement": "MIC", "setting": "Staph aureus 2810", "value": "> 64", "unit": "µg/mL"}, {"measurement": "MIC", "setting": "Staph aureus 1031 [1]", "value": "> 64", "unit": "µg/mL"}, {"measurement": "MIC", "setting": "Staph aureus 1031 [2]", "value": "> 64", "unit": "µg/mL"}]}
{"smiles": "COc1ccc2nccc(C(O)CC[C@@H]3CCN(C4CC(c5ccccc5)C4)C[C@@H]3C(=O)O)c2c1", "note": "(single isomer, unassigned) [Example 1]", "values": [{"measurement": "MIC, column A", "setting": "Staph aureus 1095 MRSA", "value": "<=.0992 μg/ml"}, {"measurement": "MIC, column H", "setting": "Staph aureus 2810; Staph aureus 2810, Assay 2, no serum", "value": 0.125, "unit": "µg/mL"}, {"measurement": "MIC, column E", "setting": "Staph aureus 2812", "value": "<=.0992 μg/ml"}, {"measurement": "MIC, column F", "setting": "Staph aureus 1031 [2]; Staph aureus 1031, Assay 2, no serum", "value": "<=.0884 μg/ml"}, {"measurement": "MIC, column D", "setting": "Staph aureus 2811", "value": "<=.0787 μg/ml"}, {"measurement": "MIC, column B", "setting": "Staph aureus 1146 [3]", "value": "<=.0787 μg/ml"}, {"measurement": "MIC, column C", "setting": "Staph aureus 1146 [4]", "value": 0.3969, "unit": "µg/mL"}]}
{"smiles": "COc1ccc2nccc(C(O)CC[C@@H]3CCN(C4CC(Cc5cccc(F)c5)C4)C[C@@H]3C(=O)O)c2c1", "note": "(stereo partly drawn) [Example 192, (3R,4R)-1-[3-(3-fluorobenzyl)cyclobutyl]-4-[3-hydroxy-3-(6-methoxyquinolin-4-yl)propyl]piperidine-3-carboxylic acid]", "values": [{"measurement": "MIC", "setting": "Staph aureus 1095 MRSA", "value": 4, "unit": "µg/mL"}, {"measurement": "MIC", "setting": "Staph aureus 2812", "value": 2, "unit": "µg/mL"}, {"measurement": "MIC", "setting": "Staph aureus 2811", "value": 1, "unit": "µg/mL"}, {"measurement": "MIC", "setting": "Staph aureus 1146 [3]", "value": 1, "unit": "µg/mL"}, {"measurement": "MIC", "setting": "Staph aureus 1146 [4]", "value": 32, "unit": "µg/mL"}]}
{"smiles": "COc1ccc2ncc(F)c(C(O)CCC3(C(=O)O)CCN(C4CC(c5ccccc5)C4)CC3)c2c1", "note": "(stereo not shown) [Example 24, 4-[3-(3-fluoro-6-methoxyquinolin-4-yl)-3-hydroxypropyl]-1-(3-phenylcyclobutyl)piperidine-4-carboxylic acid]", "values": [{"measurement": "MIC", "setting": "Staph aureus 1095 MRSA", "value": 16, "unit": "µg/mL"}, {"measurement": "MIC", "setting": "Staph aureus 2812", "value": 8, "unit": "µg/mL"}, {"measurement": "MIC", "setting": "Staph aureus 2811", "value": 4, "unit": "µg/mL"}, {"measurement": "MIC", "setting": "Staph aureus 1146 [3]", "value": 4, "unit": "µg/mL"}, {"measurement": "MIC", "setting": "Staph aureus 1146 [4]", "value": "> 64", "unit": "µg/mL"}]}
{"smiles": "COc1ccc2nccc([C@@H](O)CC[C@@H]3CCN(C4CC(c5c(F)cccc5F)C4C)C[C@@H]3C(=O)O)c2c1", "note": "(stereo partly drawn) [Example 66, (3R,4R)-1-[(2,3)-3-(2,6-difluorophenyl)-2-methylcyclobutyl]-4-[(3S)-3-hydroxy-3-(6-methoxyquinolin-4-yl)propyl]piperidine-3-carboxylic acid]", "values": [{"measurement": "MIC, column A", "setting": "Staph aureus 1095 MRSA", "value": 1, "unit": "µg/mL"}, {"measurement": "MIC, column E", "setting": "Staph aureus 2812", "value": 0.25, "unit": "µg/mL"}, {"measurement": "MIC, column D", "setting": "Staph aureus 2811", "value": 0.125, "unit": "µg/mL"}, {"measurement": "MIC, column B", "setting": "Staph aureus 1146 [3]", "value": 0.125, "unit": "µg/mL"}, {"measurement": "MIC, column C", "setting": "Staph aureus 1146 [4]", "value": 4, "unit": "µg/mL"}]}
